# Columns and labels:
# liver cancer patients = assay: Progression-free survival with sorafenib treatment by SLC15A2 genotype (Kaplan-Meier, Cox proportional hazard model); assay type: in vivo, human
# Text: Five coding variants were identified in the SLC15A2 gene by NGS analysis, and three non-synonymous SNVs (L350F, P409S and R509K), which may cause a functional alternation in gene product, were selected so as to analyze genotypes for 233 liver cancer patients that had received sorafenib treatment over 6 weeks.
# Also, to confirm SNPs to be analyzed, 249 patients treated with sorafenib were genotyped using the MassARRAY system (Sequenom, San Diego, Calif., USA), thereby obtaining three SNP genotypes (C/C, C/T and T/T).
# Specifically, the association between generic polymorphisms and risk for progression was assessed by a Cox proportional hazard model with adjustment by stage of hepatocellular carcinoma (HCC). Also, analyses of data obtained were performed using STATA version 10.1 (Stata Corp, College Station, Tex., USA).
# PLC/PRFS cell line = assay: MTT assay, cell viability after sorafenib treatment; assay type: cell-based, human; conditions: C/T genotype
# Experimental: (§1) First, human hepatocellular carcinoma (HCC)-derived cell lines such as Hep3B, SNU182 and PLC/PRFS cell lines were purchased from Korean Cell Line Bank (KCLB, Seoul, Republic of Korea), and genomic DNA was extracted from the cell lines derived from human HCC using a MagAttract DNA mini M48 kit (Qiagen) according to a user manual of the kit.
# (§2) Afterward, to confirm the sorafenib response in each cell line according to the SLC15A2 gene nucleotide polymorphism, each cell line was cultured in RPMI-1640 (Invitrogen, Carlsbad, Calif., USA) with 10%(v/v) fetal bovine serum (FBS) and 100 U/ml penicillin-streptomycin at 37° C. in 5% CO2. Next, for the MTT assay, cells obtained by the above-described culture were plated on 96-well plates at a density of 1×10^4 cells/well and treated with sorafenib for 48 hours in the RPMI-1640 used above.
# (§3) Then, the number of viable cells was measured by performing the MTT assay (Promega Fitchburg, Wis., USA) according to a user manual of the MTT assay.
# SNU182 cell line = assay: as above; assay type: cell-based, human; conditions: SNU182, T/T genotype
# Experimental: as §1, §2, §3
# Hep3B cell line = assay: as above; assay type: cell-based, human; conditions: C/C genotype, sorafenib for 48 hours
# Experimental: as §1, §2, §3
smiles,measurement,setting,value
CNC(=O)c1cc(Oc2ccc(NC(=O)Nc3ccc(Cl)c(C(F)(F)F)c3)cc2)ccn1 [sorafenib],progression-free survival (accumulative hazard ratio),liver cancer patients,2.46
same,response to sorafenib treatment,liver cancer patients; subjects with C/T or T/T genotype compared with C/C genotype,stronger response
same,response to sorafenib compared with Hep3B cell line (C/C genotype),PLC/PRFS cell line; 48 hours,stronger response
same,proliferation,PLC/PRFS cell line; sorafenib for 48 hours,dose-dependently inhibited
same,response to sorafenib compared with Hep3B cell line (C/C genotype),SNU182 cell line; 48 hours,stronger response
same,proliferation,SNU182 cell line; sorafenib for 48 hours,dose-dependently inhibited
same,proliferation,Hep3B cell line,dose-dependently inhibited

# — patent US20170211147A1, “METHOD OF PREDICTING REACTION TO SORAFENIB TREATMENT USING GENE POLYMORPHISM” (National Cancer Center, priority 2014, published 2017)
